# Results published in ChEMBL document CHEMBL1126669, “A remarkable change of opioid receptor selectivity on the attachment of a peptidomimetic kappa address element to the delta antagonist, natrindole: 5'-[N2-alkylamidino)methyl]naltrindole derivatives as a novel class of kappa opioid receptor antagonists” (J Med Chem, 1993).
# Columns and labels:
# [1] = target: Opioid receptors; delta & kappa (Homo sapiens) (UniProt P41145+P41143); experiment: Selectivity ratio is IC50 value of kappa-opioid receptor to that of delta-opioid receptor; assay type: protein assay
# [2] = target: Opioid receptors; mu & kappa (Homo sapiens) (UniProt P41145+P35372); experiment: Selectivity ratio is IC50 value of kappa-opioid receptor to that of mu-opioid receptor; assay type: protein assay
# [3] = target: Mu-type opioid receptor (Cavia porcellus) (UniProt P97266); experiment: Ratio of IC50 of morphine (M) in the presence (100 nM) to that of morphine (M) alone, against mu opioid receptor in Guinea pig ileum preparation.; assay type: tissue-based
# [4] = target: Delta-type opioid receptor (Mus musculus) (UniProt P32300); experiment: Ratio of IC50 of [D-Ala2,D-Leu5]enkephalin (DADLE) in the presence (100 nM) to that of [(DADLE) alone, against delta opioid receptor in mouse vas deferens preparation
# [5] = target: Kappa-type opioid receptor (Cavia porcellus, UniProt P41144); experiment: Binding affinity for k opioid receptor was determined using [3H]U-69593 radioligand in Guinea pig brain membranes; assay type: cell membranes, Membrane
# Mu-type opioid receptor = Mu-type opioid receptor (Cavia porcellus, UniProt P97266); experiment: Binding affinity for mu opioid receptor was determined using radioligand [3H][D-Ala2,MePhe4,Gly-ol6]enkephalin (DAMGO) in Guinea pig brain membranes.; assay type: cell membranes
# [6] = target: Kappa-type opioid receptor (Cavia porcellus) (UniProt P41144); experiment: Ratio of IC50 of ethylketazocine (EK) in the presence (100 nM) to that of ethylketazocine (EK) alone, against kappa opioid receptor in Guinea pig ileum preparation; assay type: tissue-based
# Kappa-type opioid receptor (Cavia porcellus), sequence (P41144 whole entry): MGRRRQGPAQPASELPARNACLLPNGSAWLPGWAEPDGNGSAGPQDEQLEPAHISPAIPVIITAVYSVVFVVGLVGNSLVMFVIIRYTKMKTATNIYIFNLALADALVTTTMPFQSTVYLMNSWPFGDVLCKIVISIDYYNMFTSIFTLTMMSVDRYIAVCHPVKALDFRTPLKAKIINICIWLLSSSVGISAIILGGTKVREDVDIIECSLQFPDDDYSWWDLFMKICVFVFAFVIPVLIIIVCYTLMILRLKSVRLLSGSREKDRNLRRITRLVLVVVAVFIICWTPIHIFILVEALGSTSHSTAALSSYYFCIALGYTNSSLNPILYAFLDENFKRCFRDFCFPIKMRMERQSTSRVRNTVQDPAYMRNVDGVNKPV
# Delta-type opioid receptor (Mus musculus), sequence (P32300 whole entry): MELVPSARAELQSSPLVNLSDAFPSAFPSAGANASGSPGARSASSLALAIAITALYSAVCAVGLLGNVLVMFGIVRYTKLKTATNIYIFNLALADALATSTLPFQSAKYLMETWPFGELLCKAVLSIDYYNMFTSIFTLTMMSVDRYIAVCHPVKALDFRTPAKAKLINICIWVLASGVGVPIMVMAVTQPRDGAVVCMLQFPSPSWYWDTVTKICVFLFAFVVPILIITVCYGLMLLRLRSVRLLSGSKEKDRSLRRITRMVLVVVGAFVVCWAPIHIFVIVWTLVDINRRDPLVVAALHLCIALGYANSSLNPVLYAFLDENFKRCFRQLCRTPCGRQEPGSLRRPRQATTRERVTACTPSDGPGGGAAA
# Opioid receptors; mu & kappa (Homo sapiens), sequence (P35372 whole entry, looked up): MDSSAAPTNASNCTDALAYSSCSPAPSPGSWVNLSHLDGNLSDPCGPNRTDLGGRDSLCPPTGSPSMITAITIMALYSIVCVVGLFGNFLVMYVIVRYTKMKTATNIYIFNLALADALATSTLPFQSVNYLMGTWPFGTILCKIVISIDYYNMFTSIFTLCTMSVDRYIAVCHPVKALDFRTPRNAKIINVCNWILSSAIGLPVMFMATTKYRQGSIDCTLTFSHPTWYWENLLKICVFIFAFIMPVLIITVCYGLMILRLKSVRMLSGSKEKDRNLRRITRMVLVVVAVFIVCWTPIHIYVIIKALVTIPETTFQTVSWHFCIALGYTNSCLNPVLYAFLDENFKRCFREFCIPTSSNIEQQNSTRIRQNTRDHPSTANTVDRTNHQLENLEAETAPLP
# Opioid receptors; mu & kappa (Homo sapiens), sequence (P41145 whole entry, looked up): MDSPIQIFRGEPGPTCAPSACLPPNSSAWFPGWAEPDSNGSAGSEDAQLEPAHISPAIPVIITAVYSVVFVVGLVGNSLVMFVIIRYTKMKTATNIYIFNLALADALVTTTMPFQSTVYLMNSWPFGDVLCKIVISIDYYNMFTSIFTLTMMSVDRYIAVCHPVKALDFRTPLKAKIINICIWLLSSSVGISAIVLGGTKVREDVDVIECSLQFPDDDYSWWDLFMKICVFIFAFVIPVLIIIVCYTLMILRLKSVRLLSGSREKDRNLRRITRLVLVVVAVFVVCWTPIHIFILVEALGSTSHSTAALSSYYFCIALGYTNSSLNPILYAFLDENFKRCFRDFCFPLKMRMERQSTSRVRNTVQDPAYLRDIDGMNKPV
# Opioid receptors; delta & kappa (Homo sapiens), sequence (P41143 whole entry, looked up): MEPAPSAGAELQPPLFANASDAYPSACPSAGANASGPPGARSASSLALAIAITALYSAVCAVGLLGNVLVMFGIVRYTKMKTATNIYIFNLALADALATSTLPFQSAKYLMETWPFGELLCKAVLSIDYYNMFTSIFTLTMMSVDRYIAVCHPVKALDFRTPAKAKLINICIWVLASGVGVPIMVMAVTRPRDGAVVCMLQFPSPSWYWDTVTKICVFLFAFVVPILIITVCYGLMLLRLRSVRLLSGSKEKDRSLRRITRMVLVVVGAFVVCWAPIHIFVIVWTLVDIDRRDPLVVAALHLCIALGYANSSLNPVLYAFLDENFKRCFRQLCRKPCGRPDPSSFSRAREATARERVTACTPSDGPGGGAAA
# Opioid receptors; delta & kappa (Homo sapiens), sequence (P41145 whole entry, looked up): as the sequence (P41145 whole entry, looked up) above
# Mu-type opioid receptor (Cavia porcellus), sequence (P97266 whole entry): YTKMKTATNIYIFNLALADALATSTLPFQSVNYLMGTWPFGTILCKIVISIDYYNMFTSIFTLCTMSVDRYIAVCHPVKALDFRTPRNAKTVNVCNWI
# Kappa-type opioid receptor, sequence (P41144 whole entry): as the sequence (P41144 whole entry) above
# Mu-type opioid receptor, sequence (P97266 whole entry): as the sequence (P97266 whole entry) above
compound,measurement,setting,value
CCCCC(=N)NCc1ccc2[nH]c3c(c2c1)C[C@@]1(O)[C@H]2Cc4ccc(O)c5c4[C@@]1(CCN2CC1CC1)C3O5 (stereo partly specified),Selectivity ratio,[1],93
same,Selectivity ratio,[2],28
same,IC50 ratio,[3],15.7
same,IC50 ratio,[4],4.71
same,Ki,[5],0.061 nM
same,Ki,Mu-type opioid receptor,3.5 nM
same,IC50 ratio,[6],439
CCC(=N)NCc1ccc2[nH]c3c(c2c1)C[C@@]1(O)[C@H]2Cc4ccc(O)c5c4[C@@]1(CCN2CC1CC1)C3O5 (stereo partly specified),Selectivity ratio,[1],69
same,Selectivity ratio,[2],14
same,IC50 ratio,[3],11.3
same,IC50 ratio,[4],2.28
same,IC50 ratio,[6],159
Oc1ccc2c3c1O[C@H]1c4[nH]c5c(c4C[C@@]4(O)[C@@H](C2)N(CC2CC2)CC[C@]314)C[C@@]1(O)[C@H]2Cc3ccc(O)c4c3[C@@]1(CCN2CC1CC1)[C@H]5O4 [NORBINALTORPHIMINE],Ki,[5],0.28 nM
CCCC(=N)NCc1ccc2[nH]c3c(c2c1)C[C@@]1(O)[C@H]2Cc4ccc(O)c5c4[C@@]1(CCN2CC1CC1)C3O5 (stereo partly specified),Selectivity ratio,[1],62
same,Selectivity ratio,[2],10
same,IC50 ratio,[3],19.3
same,IC50 ratio,[4],3
same,IC50 ratio,[6],185
Oc1ccc2c3c1O[C@H]1c4[nH]c5ccccc5c4C[C@@]4(O)[C@@H](C2)N(CC2CC2)CC[C@]314,IC50 ratio,[3],11.2
same,IC50 ratio,[4],459
same,IC50 ratio,[6],1.3
